Data taken from the supplement of paper PMC11451515.

Experiments:
Settings in all cases: 48 h
NOMO1 [1] = assay: AUC of viability dose-response curve (% viability x log10 dose units); higher = less sensitive
Outline: (§1)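 Viability of medium-adapted leukemia cells was measured by CellTiter-Glo One luminescence after 48 h at 37°C with library compounds in DMSO. Doses were 11 threefold steps from 47 μM to 0.79 nM, in 1536-well plates at 500 or 1000 cells/well. Signals were normalised per plate to DMSO and cell-free wells and fitted with a four-parameter log-logistic model on log10 dose. Area under the curve was integrated by trapezoidal rule, with curves exceeding full viability scaled and failed quality-control curves removed.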

P12-Ichikawa [2] = assay: as above
Outline: as §1

SEM cells [3] = assay: as above
Outline: as §1

NOMO1 [4] = assay: cell viability relative to DMSO control; higher = less cytotoxic
Outline: (§2)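 Library compounds in DMSO were pin-dosed into 1536-well plates (5 μl) holding NOMO1 or SEM (500 cells/well) or P12-Ichikawa (1000 cells/well) leukemia cells, across an 11-point threefold series of 47 μM to 0.79 nM. Each cell line had been adapted for at least four passages in each medium. CellTiter-Glo One luminescence was read after 48 h at 37°C. Viability is the per-plate percentage relative to DMSO wells, with cell-free wells as background.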

P12-Ichikawa [5] = assay: as above
Outline: as §2

SEM cells [6] = assay: as above
Outline: as §2

O=C(NCc1ccccc1)[C@H](Cc1ccccc1)NC(=O)[C@H]1O[C@@H]1C(=O)NCCc1ccc(O)cc1
AUC of viability dose-response curve
Settings | NOMO1 [1] | P12-Ichikawa [2] | SEM cells [3]
HPLM + 10% dialyzed FBS | 431 | 468 | 464
RPMI 5 mM glucose + 10% FBS | 459 | 461 | 463
RPMI 5 mM glucose + 10% dialyzed FBS | 425 | 463 | 453

CN1CCN(c2cccc(Nc3nc4c(-c5ccc([S+](C)(=O)[O-])cc5)cccn4n3)c2)CC1
AUC of viability dose-response curve
Settings | NOMO1 [1] | P12-Ichikawa [2] | SEM cells [3]
HPLM + 10% dialyzed FBS | 438 | 453 | 379
RPMI 5 mM glucose + 10% FBS | 449 | 427 | 375
RPMI 5 mM glucose + 10% dialyzed FBS | 450 | 435 | 372

CCC(c1ccc(O)cc1)C(CC)c1ccc(O)cc1 (centres undefined)
AUC of viability dose-response curve
Settings | NOMO1 [1] | P12-Ichikawa [2] | SEM cells [3]
HPLM + 10% dialyzed FBS | 428 | 452 | 459
RPMI 5 mM glucose + 10% FBS | 448 | 464 | 457
RPMI 5 mM glucose + 10% dialyzed FBS | 463 | 466 | 466

O=C1[O][Pt]2([NH]C3CCCCC3[NH]2)[O]C1=O (centres undefined)
cell viability [%]
Settings | NOMO1 [4] | P12-Ichikawa [5] | SEM cells [6]
HPLM + 10% dialyzed FBS, 0.000781 µM | 116 | 19.4 | 95.9
HPLM + 10% dialyzed FBS, 0.00234 µM | 118 | 112 | 110
HPLM + 10% dialyzed FBS, 0.00702 µM | 119 | 115 | 102
HPLM + 10% dialyzed FBS, 0.0211 µM | 107 | 111 | 107
HPLM + 10% dialyzed FBS, 0.0632 µM | 141 | 118 | 105
HPLM + 10% dialyzed FBS, 0.19 µM | 118 | 113 | 108
HPLM + 10% dialyzed FBS, 0.569 µM | 131 | 118 | 101
HPLM + 10% dialyzed FBS, 1.71 µM | 120 | 114 | 91.5
HPLM + 10% dialyzed FBS, 5.12 µM | 90.2 | 62.4 | 27
HPLM + 10% dialyzed FBS, 15.4 µM | 14.7 | 2.95 | 3.68
HPLM + 10% dialyzed FBS, 46.1 µM | 7.1 | 3.39 | 4.13
RPMI 5 mM glucose + 10% FBS, 0.000781 µM | 108 | 106 | 74
RPMI 5 mM glucose + 10% FBS, 0.00234 µM | 103 | 109 | 77.5
RPMI 5 mM glucose + 10% FBS, 0.00702 µM | 120 | 106 | 69
RPMI 5 mM glucose + 10% FBS, 0.0211 µM | 119 | 118 | 66.6
RPMI 5 mM glucose + 10% FBS, 0.0632 µM | 110 | 115 | 83.8
RPMI 5 mM glucose + 10% FBS, 0.19 µM | 135 | 123 | 84
RPMI 5 mM glucose + 10% FBS, 0.569 µM | 115 | 128 | 81.7
RPMI 5 mM glucose + 10% FBS, 1.71 µM | 107 | 117 | 60.3
RPMI 5 mM glucose + 10% FBS, 5.12 µM | 90.4 | 70 | 15
RPMI 5 mM glucose + 10% FBS, 15.4 µM | 17.6 | 3.56 | 2.66
RPMI 5 mM glucose + 10% FBS, 46.1 µM | 5.82 | 2.67 | 2.68
RPMI 5 mM glucose + 10% dialyzed FBS, 0.000781 µM | 107 | 111 | 84.7
RPMI 5 mM glucose + 10% dialyzed FBS, 0.00234 µM | 108 | 115 | 97.5
RPMI 5 mM glucose + 10% dialyzed FBS, 0.00702 µM | 100 | 121 | 104
RPMI 5 mM glucose + 10% dialyzed FBS, 0.0211 µM | 110 | 119 | 114
RPMI 5 mM glucose + 10% dialyzed FBS, 0.0632 µM | 109 | 119 | 108
RPMI 5 mM glucose + 10% dialyzed FBS, 0.19 µM | 122 | 113 | 102
RPMI 5 mM glucose + 10% dialyzed FBS, 0.569 µM | 108 | 114 | 118
RPMI 5 mM glucose + 10% dialyzed FBS, 1.71 µM | 112 | 113 | 91.3
RPMI 5 mM glucose + 10% dialyzed FBS, 5.12 µM | 98.4 | 79 | 42.6
RPMI 5 mM glucose + 10% dialyzed FBS, 15.4 µM | 38.3 | 7.33 | 3.5
RPMI 5 mM glucose + 10% dialyzed FBS, 46.1 µM | 9.17 | 2.85 | 3.34

NOMO1 [1]
Settings | AUC of viability dose-response curve
HPLM + 10% dialyzed FBS | 400
RPMI 5 mM glucose + 10% FBS | 403
RPMI 5 mM glucose + 10% dialyzed FBS | 419

CN(C(=O)c1ccc(F)cc1C(F)(F)F)C1CCN(c2nnc(-c3ccnn3C)c3ccccc23)CC1
cell viability [%]
Settings | NOMO1 [4] | P12-Ichikawa [5] | SEM cells [6]
HPLM + 10% dialyzed FBS, 0.000781 µM | 61.1 | 74.9 | 50.4
HPLM + 10% dialyzed FBS, 0.00234 µM | 79 | 88.9 | 67.5
HPLM + 10% dialyzed FBS, 0.00702 µM | 87.1 | 77.9 | 60.6
HPLM + 10% dialyzed FBS, 0.0211 µM | 83.2 | 85.9 | 62.4
HPLM + 10% dialyzed FBS, 0.0632 µM | 102 | 89.2 | 79.4
HPLM + 10% dialyzed FBS, 0.19 µM | 97.8 | 81.8 | 85.1
HPLM + 10% dialyzed FBS, 0.569 µM | 83.4 | 82.1 | 69.4
HPLM + 10% dialyzed FBS, 1.71 µM | 95.2 | 84.5 | 78.6
HPLM + 10% dialyzed FBS, 5.12 µM | 85.2 | 79.4 | 79
HPLM + 10% dialyzed FBS, 15.4 µM | 88.8 | 85.4 | 80.6
HPLM + 10% dialyzed FBS, 46.1 µM | 77.9 | 47.3 | 49.2
RPMI 5 mM glucose + 10% FBS, 0.000781 µM | 66 | 75.1 | 69.2
RPMI 5 mM glucose + 10% FBS, 0.00234 µM | 71.6 | 83.3 | 74.8
RPMI 5 mM glucose + 10% FBS, 0.00702 µM | 69.4 | 81.5 | 71
RPMI 5 mM glucose + 10% FBS, 0.0211 µM | 83.3 | 76.2 | 85.5
RPMI 5 mM glucose + 10% FBS, 0.0632 µM | 82.3 | 78.5 | 83.3
RPMI 5 mM glucose + 10% FBS, 0.19 µM | 84.8 | 81.5 | 77.6
RPMI 5 mM glucose + 10% FBS, 0.569 µM | 11.9 | 79.4 | 91
RPMI 5 mM glucose + 10% FBS, 1.71 µM | 82.8 | 71.7 | 86.2
RPMI 5 mM glucose + 10% FBS, 5.12 µM | 79.6 | 75.3 | 74.1
RPMI 5 mM glucose + 10% FBS, 15.4 µM | 76.6 | 82.8 | 86.8
RPMI 5 mM glucose + 10% FBS, 46.1 µM | 75 | 39.6 | 59.8
RPMI 5 mM glucose + 10% dialyzed FBS, 0.000781 µM | 76 | 73.7 | 56.3
RPMI 5 mM glucose + 10% dialyzed FBS, 0.00234 µM | 85.4 | 70.6 | 61.4
RPMI 5 mM glucose + 10% dialyzed FBS, 0.00702 µM | 79.9 | 72.8 | 61.9
RPMI 5 mM glucose + 10% dialyzed FBS, 0.0211 µM | 86.8 | 78.5 | 70.8
RPMI 5 mM glucose + 10% dialyzed FBS, 0.0632 µM | 77.6 | 79.9 | 66.7
RPMI 5 mM glucose + 10% dialyzed FBS, 0.19 µM | 86.3 | 84.8 | 80.4
RPMI 5 mM glucose + 10% dialyzed FBS, 0.569 µM | 77.1 | 75.9 | 65
RPMI 5 mM glucose + 10% dialyzed FBS, 1.71 µM | 80.7 | 75.1 | 86.1
RPMI 5 mM glucose + 10% dialyzed FBS, 5.12 µM | 82.2 | 74.3 | 79.2
RPMI 5 mM glucose + 10% dialyzed FBS, 15.4 µM | 78 | 77.7 | 83.3
RPMI 5 mM glucose + 10% dialyzed FBS, 46.1 µM | 41.9 | 38.2 | 41

AUC of viability dose-response curve
Settings | HPLM + 10% dialyzed FBS | RPMI 5 mM glucose + 10% FBS | RPMI 5 mM glucose + 10% dialyzed FBS
P12-Ichikawa [2] | 387 | 365 | 355
SEM cells [3] | 331 | 373 | 326
